Results reported in patent US6809065B2, “Herbicide containing substituted pyrazole derivative as active ingredient” (SDS Biotech K.K., priority 2001, dated 2004).

Assays:
Chenopodium album [1] = assay: Upland field foliage treatment (Test Example 1); format: in vivo; details: foliage treatment 14th day after sowing, wettable powder, 1 kg active ingredient per hectare, evaluated 21st day after application
How it was run: (§1)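 Scored on an index 21 days after treatment: a high value on weeds means more herbicidal effect, and a low value on crops means more crop safety. Treatment was a foliar spray of water-diluted wettable powder at 1 kg a.i./ha, applied to plants 14 days after sowing in upland soil.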

Digitaria adscendens [2] = assay: Upland field foliage treatment (Test Example 1); format: in vivo; details: foliage treatment 14th day after sowing, wettable powder, 1 kg active ingredient per hectare, evaluated 21st day after application
How it was run: as §1

Setaria viridis [3] = assay: Upland field foliage treatment (Test Example 1); format: in vivo; details: foliage treatment 14th day after sowing, wettable powder, 1 kg active ingredient per hectare, evaluated 21st day after application
How it was run: as §1

Stellaria media [4] = assay: Upland field foliage treatment (Test Example 1); format: in vivo; details: foliage treatment 14th day after sowing, wettable powder, 1 kg active ingredient per hectare, evaluated 21st day after application
How it was run: as §1

soybean (Glycine max) [5] = assay: Upland field foliage treatment (Test Example 1), crop; format: in vivo; details: foliage treatment 14th day after sowing, 1 kg active ingredient per hectare, evaluated 21st day, lower index = higher safety
How it was run: as §1

[6] = test system: wheat (Triticum aestivum); assay: as above; format: in vivo; details: foliage treatment 14th day after sowing, 1 kg active ingredient per hectare, evaluated 21st day, lower index = higher safety
How it was run: as §1

Chenopodium album [7] = assay: Upland soil treatment (Test Example 2); format: in vivo; details: soil surface treatment next day after sowing, wettable powder, 1 kg active ingredient per hectare, evaluated 21st day after application
How it was run: (§2)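 Applies a soil-surface, pre-emergence spray of 1 kg active ingredient/ha (wettable powder in water) one day after sowing; weed control and crop injury are rated on an index scale three weeks later.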

Digitaria adscendens [8] = assay: Upland soil treatment (Test Example 2); format: in vivo; details: soil surface treatment next day after sowing, wettable powder, 1 kg active ingredient per hectare, evaluated 21st day after application
How it was run: as §2

Setaria viridis [9] = assay: Upland soil treatment (Test Example 2); format: in vivo; details: soil surface treatment next day after sowing, wettable powder, 1 kg active ingredient per hectare, evaluated 21st day after application
How it was run: as §2

Stellaria media [10] = assay: Upland soil treatment (Test Example 2); format: in vivo; details: soil surface treatment next day after sowing, wettable powder, 1 kg active ingredient per hectare, evaluated 21st day after application
How it was run: as §2

soybean (Glycine max) [11] = assay: Upland soil treatment (Test Example 2), crop; format: in vivo; details: soil surface treatment next day after sowing, 1 kg active ingredient per hectare, evaluated 21st day, lower index = higher safety
How it was run: as §2

[12] = test system: wheat (Triticum aestivum); assay: Upland soil treatment (Test Example 2), crop; format: in vivo; details: soil surface treatment next day after sowing, 1 kg active ingredient per hectare, evaluated 21st day, lower index = higher safety
How it was run: as §2

Echinochloa spp. = assay: Paddy field treatment (Test Example 3); format: in vivo, Echinochloa crusgalli; details: paddy pot, submerged 4 cm, dropped on water surface 10th day after transplantation, 1 kg active ingredient per hectare, evaluated 21st day
How it was run: (§3)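 Index scoring of herbicidal effect and rice safety 21 days after treatment. The wettable powder, dosed at 1 kg a.i./ha, was dripped onto flooded pots (4 cm water) 10 days after transplanting two-leaf Koshihikari rice. Weed seeds had been sown into the puddled soil.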

Ammannia multiflora = assay: Paddy field treatment (Test Example 3); format: in vivo; details: paddy pot, submerged 4 cm, dropped on water surface 10th day after transplantation, 1 kg active ingredient per hectare, evaluated 21st day
How it was run: as §3

Monochoria vaginalis = assay: Paddy field treatment (Test Example 3); format: in vivo; details: paddy pot, submerged 4 cm, dropped on water surface 10th day after transplantation, 1 kg active ingredient per hectare, evaluated 21st day
How it was run: as §3

Scirpus juncoides = assay: Paddy field treatment (Test Example 3); format: in vivo; details: paddy pot, submerged 4 cm, dropped on water surface 10th day after transplantation, 1 kg active ingredient per hectare, evaluated 21st day
How it was run: as §3

[13] = test system: rice (Oryza sative, variety: Koshihikari); assay: Paddy field treatment (Test Example 3), crop; format: in vivo, Oryza sativa; details: transplanted rice two-leaf period, water surface treatment 10th day after transplantation, 1 kg active ingredient per hectare, evaluated 21st day, lower index = higher safety
How it was run: as §3

| Compound | Herbicidal activity Chenopodium album (Chenopodium album [1]) | Herbicidal activity Digitaria adscendens (Digitaria adscendens [2]) | Herbicidal activity Setaria viridis (Setaria viridis [3]) | Herbicidal activity Stellaria media (Stellaria media [4]) | Herbicidal activity Glycine max (soybean (Glycine max) [5]) | Herbicidal activity Triticum aestivum [6] | Herbicidal activity Chenopodium album (Chenopodium album [7]) | Herbicidal activity Digitaria adscendens (Digitaria adscendens [8]) | Herbicidal activity Setaria viridis (Setaria viridis [9]) | Herbicidal activity Stellaria media (Stellaria media [10]) | Herbicidal activity Glycine max (soybean (Glycine max) [11]) | Herbicidal activity Triticum aestivum [12] | Herbicidal activity Echinochloa spp. (Echinochloa spp.) | Herbicidal activity Ammannia multiflora (Ammannia multiflora) | Herbicidal activity Monochoria vaginalis (Monochoria vaginalis) | Herbicidal activity Scirpus juncoides (Scirpus juncoides) | Herbicidal activity Oryza sativa [13] |
| --- | --- | --- | --- | --- | --- | --- | --- | --- | --- | --- | --- | --- | --- | --- | --- | --- | --- |
| COC=C(Cn1nc(-c2ccccc2)c(C)c1Br)C(=O)OC [Compound 46] | 5 (herbicidal effect of not less than 90% by weight) | 4 (herbicidal effect of not less than 70% by weight and less than 90% by weight) | 4 (herbicidal effect of not less than 70% by weight and less than 90% by weight) | 5 (herbicidal effect of not less than 90% by weight) | 1 (herbicidal effect of not less than 10% by weight and less than 30% by weight) | 0 (herbicidal effect of not less than 0% by weight and less than 10% by weight) | 4 (herbicidal effect of not less than 70% by weight and less than 90% by weight) | 4 (herbicidal effect of not less than 70% by weight and less than 90% by weight) | 4 (herbicidal effect of not less than 70% by weight and less than 90% by weight) | 4 (herbicidal effect of not less than 70% by weight and less than 90% by weight) | 0 (herbicidal effect of not less than 0% by weight and less than 10% by weight) | 0 (herbicidal effect of not less than 0% by weight and less than 10% by weight) | 3 (herbicidal effect of not less than 50% by weight and less than 70% by weight) | 3 (herbicidal effect of not less than 50% by weight and less than 70% by weight) | 3 (herbicidal effect of not less than 50% by weight and less than 70% by weight) | 3 (herbicidal effect of not less than 50% by weight and less than 70% by weight) | 0 (herbicidal effect of not less than 0% by weight and less than 10% by weight) |
| COC=C(Cn1nc(-c2ccccc2Cl)c(Br)c1C)C(=O)OC [Compound 27] | 5 (herbicidal effect of not less than 90% by weight) | 5 (herbicidal effect of not less than 90% by weight) | 4 (herbicidal effect of not less than 70% by weight and less than 90% by weight) | 5 (herbicidal effect of not less than 90% by weight) | 0 (herbicidal effect of not less than 0% by weight and less than 10% by weight) | 0 (herbicidal effect of not less than 0% by weight and less than 10% by weight) | 4 (herbicidal effect of not less than 70% by weight and less than 90% by weight) | 5 (herbicidal effect of not less than 90% by weight) | 4 (herbicidal effect of not less than 70% by weight and less than 90% by weight) | 5 (herbicidal effect of not less than 90% by weight) | 0 (herbicidal effect of not less than 0% by weight and less than 10% by weight) | 0 (herbicidal effect of not less than 0% by weight and less than 10% by weight) | 5 (herbicidal effect of not less than 90% by weight) | 5 (herbicidal effect of not less than 90% by weight) | 5 (herbicidal effect of not less than 90% by weight) | 5 (herbicidal effect of not less than 90% by weight) | 1 (herbicidal effect of not less than 10% by weight and less than 30% by weight) |
| COC=C(Cn1nc(-c2cc(Cl)ccc2Cl)c(Br)c1C)C(=O)OC [Compound 31] | 5 (herbicidal effect of not less than 90% by weight) | 5 (herbicidal effect of not less than 90% by weight) | 5 (herbicidal effect of not less than 90% by weight) | 5 (herbicidal effect of not less than 90% by weight) | 1 (herbicidal effect of not less than 10% by weight and less than 30% by weight) | 1 (herbicidal effect of not less than 10% by weight and less than 30% by weight) | 5 (herbicidal effect of not less than 90% by weight) | 5 (herbicidal effect of not less than 90% by weight) | 5 (herbicidal effect of not less than 90% by weight) | 5 (herbicidal effect of not less than 90% by weight) | 0 (herbicidal effect of not less than 0% by weight and less than 10% by weight) | 0 (herbicidal effect of not less than 0% by weight and less than 10% by weight) | 5 (herbicidal effect of not less than 90% by weight) | 5 (herbicidal effect of not less than 90% by weight) | 5 (herbicidal effect of not less than 90% by weight) | 5 (herbicidal effect of not less than 90% by weight) | 1 (herbicidal effect of not less than 10% by weight and less than 30% by weight) |
| COC=C(Cn1nc(-c2ccccc2)c(C)c1C)C(=O)OC [Compound 33] | 5 (herbicidal effect of not less than 90% by weight) | 5 (herbicidal effect of not less than 90% by weight) | 4 (herbicidal effect of not less than 70% by weight and less than 90% by weight) | 5 (herbicidal effect of not less than 90% by weight) | 0 (herbicidal effect of not less than 0% by weight and less than 10% by weight) | 0 (herbicidal effect of not less than 0% by weight and less than 10% by weight) | 4 (herbicidal effect of not less than 70% by weight and less than 90% by weight) | 4 (herbicidal effect of not less than 70% by weight and less than 90% by weight) | 4 (herbicidal effect of not less than 70% by weight and less than 90% by weight) | 4 (herbicidal effect of not less than 70% by weight and less than 90% by weight) | 0 (herbicidal effect of not less than 0% by weight and less than 10% by weight) | 0 (herbicidal effect of not less than 0% by weight and less than 10% by weight) | 5 (herbicidal effect of not less than 90% by weight) | 5 (herbicidal effect of not less than 90% by weight) | 5 (herbicidal effect of not less than 90% by weight) | 5 (herbicidal effect of not less than 90% by weight) | 1 (herbicidal effect of not less than 10% by weight and less than 30% by weight) |
